We go through 5 compounds from ChEMBL document CHEMBL1201862, “PubChem BioAssay data set” (2004).

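How tested: cells in 96-well plates exposed to compound for 48 hours at five concentrations. GI50 is the concentration that inhibits growth by half.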 Active and inactive are the calls of the source. Cut-off read from the data, not from the text of the source: active = GI50 up to about 1.1 µM and inactive = higher.

Test systems include SK-MEL-5; HL-60; SNB-75; HCC 2998; NCI-H226; NCI-H23; SK-MEL-28; OVCAR-4; UACC-62; LXFL 529; ACHN; KM12; SF-295; SW-620; SK-MEL-2.
Holding throughout (assay): DTP human tumour cell line panel, 48 h

On to `O=C(Cc1nc2ccc([N+](=O)[O-])cc2nc1O)C(=O)Nc1ccccc1[N+](=O)[O-]`, for which the GI50 in the assay on SK-MEL-5, with HL-60, with SNB-75, in the assay on HCC 2998, in the assay on NCI-H226 and with NCI-H23 was > 100 µM (inactive) each time. Further, the GI50 – broadly, the concentration that inhibits growth by half – in the assay on SK-MEL-28 was > 100 µM (inactive); with OVCAR-4 it was > 100 µM (inactive); in the assay on UACC-62, > 100 µM (inactive); with LXFL 529, > 100 µM (inactive); with ACHN, > 100 µM (inactive); in the assay with KM12, 86.3 µM (inactive). In addition, the GI50 with SF-295, in the assay on SW-620 and in the assay on SK-MEL-2 was > 100 µM (inactive) in each case.

Take `c1ccc2c(c1)nnn1c3cnccc3nc21`: the GI50 in the assay with SK-MEL-5 was 52.6 µM (inactive); in the assay with HL-60, 8.87 µM (inactive); in the assay on SNB-75 it was 25.4 µM (inactive); in the assay with HCC 2998, 46.5 µM (inactive); with NCI-H23 it was 37.8 µM (inactive); in the assay with SK-MEL-28 it was > 100 µM (inactive). Also, the GI50 is 29 µM (inactive) in the assay on OVCAR-4; 47 µM (inactive) in the assay on UACC-62; 31.8 µM (inactive) in the assay on LXFL 529; 30.2 µM (inactive) in the assay with ACHN; 23.9 µM (inactive) in the assay with KM12; 77.1 µM (inactive) with SF-295. The values for the GI50 with SW-620 and with SK-MEL-2 were 32.4 µM (inactive) and 53.2 µM (inactive), respectively.

`c1ccc(P(=Nc2ccccc2N=P(c2ccccc2)(c2ccccc2)c2ccccc2)(c2ccccc2)c2ccccc2)cc1`: the GI50 is 0.401 µM (active) with SK-MEL-5; 1.08 µM (active) in the assay with HL-60; 0.371 µM (active) in the assay on SNB-75; 0.942 µM (active) in the assay with HCC 2998; 0.337 µM (active) in the assay with NCI-H226; 0.337 µM (active) in the assay on NCI-H23. Besides, the GI50 in the assay with SK-MEL-28 is > 100 µM (inactive); in the assay on OVCAR-4, 1.25 µM (inactive); in the assay with UACC-62, 0.562 µM (active); with LXFL 529 it was 0.337 µM (active); in the assay on ACHN, 0.869 µM (active); in the assay on KM12 it was 0.834 µM (active). The 50% growth inhibitory concentration (GI50) with SF-295 was 1.11 µM (active); in the assay on SW-620, 3.07 µM (inactive).

With `CC(C)(CN1CCOCC1)C(=O)/C=C/c1ccc(/C=C/C(=O)C(C)(C)CN2CCOCC2)cc1`, the GI50 in the assay with SK-MEL-5 was 1.79 µM (inactive); in the assay with HL-60 it was 1.45 µM (inactive); in the assay on SNB-75 it was 1.94 µM (inactive); in the assay with HCC 2998, 1.83 µM (inactive); in the assay with NCI-H226, 2.29 µM (inactive); with NCI-H23, 1.58 µM (inactive). For the same compound, the GI50 is 1.77 µM (inactive) in the assay on SK-MEL-28; 0.942 µM (active) in the assay on OVCAR-4; 1.56 µM (inactive) in the assay with UACC-62; 1.1 µM (active) with LXFL 529; 1.52 µM (inactive) in the assay on ACHN; 1.54 µM (inactive) with KM12. Moreover, the figures for the GI50 with SF-295 and with SW-620 were 2.21 µM (inactive) and 1.01 µM (active), respectively.

With `CCc1cccc(C(C)C)c1N1C(=O)C(=O)C(c2nc3ccccc3s2)C(=O)C1=O`, the GI50 is 21.8 µM (inactive) in the assay on SK-MEL-5; 12.3 µM (inactive) in the assay with HL-60; > 50 µM (inactive) in the assay with SNB-75; > 50 µM (inactive) in the assay with HCC 2998; 27.9 µM (inactive) with NCI-H23; > 50 µM (inactive) in the assay on SK-MEL-28. Further, the GI50 in the assay on OVCAR-4 is > 50 µM (inactive); in the assay with UACC-62, > 50 µM (inactive); in the assay with LXFL 529 it was 28.9 µM (inactive); in the assay on ACHN, > 50 µM (inactive); in the assay on KM12 it was > 44.7 µM (inactive); with SF-295, > 39.4 µM (inactive). Moreover, the figures for the GI50 with SW-620 and in the assay with SK-MEL-2 were 32.7 µM (inactive) and > 50 µM (inactive), respectively.
